Test results taken from US5840696A (priority 1997, dated 1998).

What was measured:
[1] = tested on: conscious and pentobarbital-anesthetized rats; experiment: influence of pentobarbital anesthesia on renal and vascular effects of nociceptin; assay type: in vivo, rat
Text: N=number of rats. *≤0.05 significant when compared using ANOVA.
N=number of animals. *≤0.05 when ANOVA used statistical comparison.

[2] = target: T1, central kappa-opioid receptors (Rattus norvegicus, UniProt P34975); experiment: renal responses to i.c.v. peptide in rats pre-treated i.c.v. with nor-binaltorphimine; assay type: in vivo; conditions: peptide 10 μg i.c.v.; nor-binaltorphimine 1 μg i.c.v.
T1 construct: Anesthetized male Sprague-Dawley rats; from tissue; host or cells: central nervous system of conscious male Sprague-Dawley rats (in vivo, lateral cerebral ventricle injection)
T1 sequence (P34975 whole entry): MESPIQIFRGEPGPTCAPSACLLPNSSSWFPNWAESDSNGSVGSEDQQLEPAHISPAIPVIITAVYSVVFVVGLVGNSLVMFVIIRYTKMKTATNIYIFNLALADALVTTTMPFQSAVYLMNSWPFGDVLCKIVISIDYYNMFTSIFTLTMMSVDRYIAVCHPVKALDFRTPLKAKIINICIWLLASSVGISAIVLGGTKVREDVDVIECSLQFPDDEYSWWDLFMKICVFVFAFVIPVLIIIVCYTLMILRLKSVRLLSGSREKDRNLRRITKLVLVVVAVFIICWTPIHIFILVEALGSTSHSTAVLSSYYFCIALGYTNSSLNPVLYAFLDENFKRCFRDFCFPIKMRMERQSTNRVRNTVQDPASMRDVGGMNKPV
Text: Abbreviations are V, urine flow rate and UNa V, urinary sodium excretion.
For comparative purposes, the renal responses produced by central administration of the endogenous opioid peptide, dynorphin A, were also studied i.c.v.
Anesthetized male Sprague-Dawley rats (275-300 g, Sprague-Dawley, Inc., Indianapolis, Ind.) were implanted with chronic arterial and venous cannulas and a bladder catheter in accordance with previously published methods (10, 12). For experiments in which drugs were administered i.c.v., a stainless steel cannula was stereotaxically implanted into the right lateral ventricle of rats under anesthesia at least 5-7 days prior to experimentation (11). On the morning of the study rats were placed in a rat holder which permits forward and backward movement and allows for collection of urine from the bladder catheter. Conscious rats were then infused i.v. with isotonic saline (50 μl/min) for the duration of the experiment. The arterial cannulae was then flushed and attached to a pressure transducer (Statham P23Db) and the urinary bladder catheter led to a collection beaker. After equilibration and stabilization of urine flow rate and urinary sodium excretion (approximately 2-3 hours) the experimental protocol described in each figure legend commenced. […]

[3] = tested on: systemic vascular bed of the anesthetized rat; conditions: literature (18); cited from earlier work
conscious rats = experiment: lower-dose i.v. infusion of nociceptin (50 and 166 nanog/Kg/min) in conscious rats, renal function; assay type: in vivo, rat
Text: These marked increases in urine flow rate occurred at doses approximately 120 fold lower than previously reported by Kapusta et al. (17). In order to confirm these more recent and complete studies of the present invention, nociceptin was obtained from three commercially available sources, Phoenix Pharmaceutical, Bachem Chemical and Peninsula Laboratories. […] Nociceptin from each of the sources above was studied at a single infusion rate in each group of six rats. […] These increases in urine flow were accompanied by a decrease in the excretion of urinary sodium (UNA V) as reported earlier (17).

[4] = tested on: forskolin-stimulated cAMP production; conditions: literature (4,5); cited from earlier work
[5] = tested on: conscious Sprague-Dawley rats; experiment: intracerebroventricular (i.c.v.) injection in conscious rats: cardiovascular and renal responses; assay type: in vivo, rat
Method: Abbreviations are HR, heart rate; MAP, mean arterial pressure; V, urine flow rate; and UNa V, urinary sodium excretion. Statistical significance within each group was determined by a repeated measures analysis of variance followed by a Bonferroni multiple comparisons test; asterisks (a, b, or c) denote a significant change (p<0.05) from control within each group.
(§1) Anesthetized male Sprague-Dawley rats (275-300 g, Sprague-Dawley, Inc., Indianapolis, Ind.) were implanted with chronic arterial and venous cannulas and a bladder catheter in accordance with previously published methods (10, 12). For experiments in which drugs were administered i.c.v., a stainless steel cannula was stereotaxically implanted into the right lateral ventricle of rats under anesthesia at least 5-7 days prior to experimentation (11). On the morning of the study rats were placed in a rat holder which permits forward and backward movement and allows for collection of urine from the bladder catheter. Conscious rats were then infused i.v. with isotonic saline (50 μl/min) for the duration of the experiment. The arterial cannulae was then flushed and attached to a pressure transducer (Statham P23Db) and the urinary bladder catheter led to a collection beaker. After equilibration and stabilization of urine flow rate and urinary sodium excretion (approximately 2-3 hours) the experimental protocol described in each figure legend commenced. Intravenous and i.c.v. stock solutions of nociceptin and nor-binaltorphimine were prepared fresh in isotonic saline vehicle. […] Animal experimentation and care procedures were in accordance with the National Institutes of Health guidelines for the care and use of animals.

[6] = tested on: conscious Sprague-Dawley rats; experiment: intravenous infusion of nociceptin in conscious chronically instrumented rats: cardiovascular and renal responses; assay type: in vivo, rat; conditions: i.v. infusion 20 μg/kg/min
Method: as §1
Statistical significance was determined by a repeated measure analysis of variance followed by a Bonferroni multiple comparisons test; asterisks denote a significant difference (p<0.05) from the respective group control.

mice = conditions: administration to mice, literature (4,5); cited from earlier work
[7] = tested on: isolated feline renal, femoral, mesenteric and carotid arterial rings; experiment: isolated feline arterial rings (with endothelium) precontracted with phenylephrine
Method: Additional studies were performed in vitro to determine the contribution of changes in regional hemodynamics in the systemic vasodilator response to nociceptin.

[8] = tested on: isolated rat aortic vascular rings; experiment: vasorelaxant response of isolated rat aortic rings in vitro precontracted with U46619
Method: Aortic rings were precontracted with U46619, a thromboxane A2 mimic.
Rat aortic rings in vitro (with intact endothelium) were precontracted with […], a thromboxane A2 mimic.
Male rats (250-350g) were anesthetized with pentobarbital sodium (30 mg/Kg i.p). The rat lungs were quickly removed and immersed in cold (4° C.) Krebs-Henseleit (K-H) solution (composition mM: NaCl 118, KCl 4.7, CaCl2 2.5, KH2 PO4 1.2, NaHCO3 25, MgSO4 1.2, and dextrose 10). Pulmonary arteries (PA) were isolated and excess fat and connective tissue were removed. Vessels were cut into rings of about 2.5-3 mm in length and were mounted in organ baths containing 5 ml K-H solution. Two stainless steel hooks were inserted into the lumen of the pulmonary artery (PA), one was fixed while the other was connected to a transducer. The tissue bath solution was maintained at 37° C. and bubbled with a 95% O2 -5%CO2 mixture. The pulmonary arteries were equilibrated for 90 min with three changes of K-H solution and an optimal tension of 1 gr. applied. Contractions were measured isometrically with a force displacement transducer (FTO3, Grass, USA) and were recorded on a Grass model 7 polygraph. The contractile ability of each ring was then examined by exposure to 60 mM KCl, then washed and allowed to dilate to baseline tension. […] The integrity of the endothelium was determined by obtaining a maximal vasorelaxant response to ACh. […]

[9] = i.v. infusion 50 and 166 nanog/Kg/min

Compound: CC(C)C[C@H](NC(=O)[C@H](CCCCN)NC(=O)[C@H](CCCN=C(N)N)NC(=O)[C@H](C)NC(=O)[C@H](CO)NC(=O)[C@H](CCCCN)NC(=O)[C@H](CCCN=C(N)N)NC(=O)[C@H](C)NC(=O)CNC(=O)[C@@H](NC(=O)[C@H](Cc1ccccc1)NC(=O)CNC(=O)CNC(=O)[C@@H](N)Cc1ccccc1)[C@@H](C)O)C(=O)N[C@@H](C)C(=O)N[C@@H](CC(N)=O)C(=O)N[C@@H](CCC(N)=O)C(=O)O [nociceptin]
- systemic vasodepressor activity, anesthetized versus conscious rats ([1]; bolus i.v. injection): greater systemic vasodepressor activity
- ability to increase urinary flow rate (V) under anesthesia ([1]; rats anesthetized with sodium pentobarbital, i.v. infusion): inhibited
- effect of i.c.v. nor-binaltorphimine pretreatment on the diuresis and antinatriuresis produced by the peptide [2]: did not alter
- decrease of systemic arterial pressure, sensitivity to naloxone [3]: naloxone-insensitive
- doses producing increases in urine flow rate, lower than in preliminary studies / Kapusta et al. (17) (conscious rats; i.v. infusion): approximately 120 fold
- baseline systemic arterial pressure and heart rate (conscious rats; [9]): did not alter baseline systemic arterial pressure and heart rate
- duration of renal responses (conscious rats; [9]): approximately 90 min
- excretion of urinary sodium (UNA V) (conscious rats; [9]): decrease
- time of peak renal effect after start of infusion (conscious rats; [9]): 30 min
- urine flow rate (V) (conscious rats; i.v. infusion 50 and 166 nanog/Kg/min, conscious rats): dose-dependent increase
- forskolin-stimulated cAMP production [4]: inhibits forskolin-stimulated cAMP production
- tachyphylaxis to the cardiovascular and renal responses ([5]; consecutive i.c.v. injection of the same dose (1, 10 or 30 μg)): did not develop
- time of peak diuresis ([5]; i.c.v. 1 μg): 30 min
- time of peak diuresis ([5]; i.c.v. 10 μg): 40 min
- renal response (urine flow rate and urinary sodium excretion) ([5]; i.c.v. 10 μg, naive conscious rats): concurrent diuretic and antinatriuretic response
- onset of diuresis compared with dynorphin A ([5]; i.c.v. 10 μg, p<0.05 at time 20 min): significantly delayed
- diuretic response ([5]; i.c.v. 1, 10 or 30 μg): profound diuretic response
- heart rate, mean arterial pressure and urinary sodium excretion ([5]; i.c.v. 1, 10 or 30 μg, versus group control): significant (p<0.05) decreases
- duration of bradycardia ([5]; i.c.v., all doses): approximately 30 minutes
- duration of hypotensive response ([5]; i.c.v., all doses): ~40 min
- onset of bradycardia and hypotensive response ([5]; i.c.v., all doses (1, 10, 30 μg)): 1 to 3 min
- minimum effective i.c.v. dose to evoke a change in urine flow rate and urinary sodium excretion ([5]; i.c.v., preliminary studies): 1 µg
- behavioral or sedative effects [6]: did not produce any behavioral or sedative effects
- duration of renal responses [6]: approximately 70 min
- heart rate [6]: did not alter heart rate
- time of peak changes in renal responses after start of infusion [6]: approximately 40 min
- urinary sodium excretion ([6]; conscious rats): decrease
- urine flow rate ([6]; conscious rats): profound increase
- mean arterial pressure ([6]; sustained throughout infusion): slight, but statistically significant decrease
- response to painful stimuli (mice): hypersensitivity to painful stimuli
- relaxation of arterial rings [7]: ability to relax
- aortic vasorelaxant response in the presence of inhibitors of nitric oxide formation and function ([8]; endothelial cell removal, methylene blue, L-NAME, L-NIO): blocked
- vasorelaxant response after cycloxygenase blockade ([8]; meclofenamate): lack of an inhibitory effect
